From ChEMBL document CHEMBL4304802, “Novel promising 4-anilinoquinazoline-based derivatives as multi-target RTKs inhibitors: Design, molecular docking, synthesis, and antitumor activities in vitro and vivo” (Bioorg Med Chem, 2019) come the findings set out here.

The term pIC50 denotes −log10 of the IC50, conventionally taken in molar units.

pIC50: −log10 of the molar value.

What all share (assay type): functional, cell-based
In one experiment the test system is DU-145. In words: Antiproliferative activity against human DU145 cells incubated for 72 hrs by MTT assay. The conditions noted are these: DU-145, 72 h. Background: Tetrazolium assays rely on reduction of a dye to a coloured formazan, in cell work by metabolically active cells.
A further experiment concerns SH-SY5Y. In words: Antiproliferative activity against human SH-SY5Y cells incubated for 72 hrs by MTT assay.
The test system of the next experiment is HepG2. In words: Antiproliferative activity against human HepG2 cells incubated for 72 hrs by MTT assay. The settings on record: HepG2, 72 h.
A further experiment has as its system MCF7. In words: Antiproliferative activity against human MCF7 cells incubated for 72 hrs by MTT assay. The conditions noted are these: MCF7, 72 h.
The subject of a further experiment is A549. In words: Antiproliferative activity against human A549 cells incubated for 72 hrs by MTT assay. The settings on record: A549, 72 h.

With `c1ccc(COc2ccc(Nc3ncnc4cc5c(cc34)OCCOCCO5)cc2)cc1`, the pIC50 in the experiment with DU-145 is below 4.00; in the experiment on SH-SY5Y, 4.41; in the experiment on HepG2 it was 4.26; in the experiment on MCF7 it was below 4.00; in the experiment with A549, 4.36.
For `c1ccc(COc2ccccc2Nc2ncnc3cc4c(cc23)OCCOCCO4)cc1`, the pIC50 with DU-145 is below 4.00; in the experiment on SH-SY5Y it was 4.03; in the experiment on HepG2, below 4.00; in the experiment on MCF7, below 4.00; with A549, below 4.00.
In the case of `O=[N+]([O-])c1ccc(COc2cccc(Nc3ncnc4cc5c(cc34)OCCOCCO5)c2)cc1`, the pIC50 in the experiment on DU-145 was below 4.00; in the experiment with SH-SY5Y, 4.44; in the experiment on HepG2, 4.18; with MCF7, 4.37; in the experiment on A549 it was 4.81.
Turning to `FC(F)(F)c1ccc(COc2ccccc2Nc2ncnc3cc4c(cc23)OCCOCCOCCO4)cc1`, the pIC50 in the experiment on DU-145, in the experiment with SH-SY5Y, in the experiment on HepG2, with MCF7 and in the experiment on A549 was below 4.00 in each case.
As for `O=[N+]([O-])c1ccc(COc2ccccc2Nc2ncnc3cc4c(cc23)OCCOCCOCCO4)cc1`, the pIC50 is below 4.00 in the experiment on DU-145; 4.12 in the experiment on SH-SY5Y; 4.22 with HepG2; below 4.00 with MCF7; 4.52 with A549.
Turning to `O=[N+]([O-])c1ccc(COc2ccc(Nc3ncnc4cc5c(cc34)OCCOCCOCCOCCO5)cc2)cc1`, the pIC50 in the experiment on DU-145, in the experiment on SH-SY5Y, in the experiment with HepG2, in the experiment with MCF7 and in the experiment with A549 was below 4.00 throughout.
For the compound `FC(F)(F)c1ccc(COc2ccccc2Nc2ncnc3cc4c(cc23)OCCOCCO4)cc1`, the pIC50 in the experiment on DU-145, in the experiment on SH-SY5Y, in the experiment with HepG2, in the experiment on MCF7 and in the experiment with A549 was below 4.00 each time.
Regarding `c1ccc(COc2cccc(Nc3ncnc4cc5c(cc34)OCCOCCOCCO5)c2)cc1`, the negative logarithm of the IC50 (pIC50) is below 4.00 in the experiment on DU-145; 4.64 in the experiment with SH-SY5Y; below 4.00 in the experiment on HepG2; below 4.00 in the experiment with MCF7; below 4.00 with A549.
For the compound `FC(F)(F)c1ccc(COc2ccc(Nc3ncnc4cc5c(cc34)OCCOCCO5)cc2)cc1`, the pIC50 with DU-145 was below 4.00; with SH-SY5Y, 4.52; in the experiment on HepG2, below 4.00; in the experiment with MCF7, below 4.00; in the experiment with A549, below 4.00.
On to `O=[N+]([O-])c1ccc(COc2ccccc2Nc2ncnc3cc4c(cc23)OCCOCCO4)cc1`, for which the pIC50 with DU-145 is 4.07; with SH-SY5Y it was below 4.00; in the experiment with HepG2 it was 4.30; in the experiment on MCF7, below 4.00; in the experiment on A549, 4.55.
As to `FC(F)(F)c1ccc(COc2ccc(Nc3ncnc4cc5c(cc34)OCCOCCOCCO5)cc2)cc1`, the pIC50 with DU-145 is below 4.00; in the experiment with SH-SY5Y, below 4.00; in the experiment on HepG2, below 4.00; in the experiment with MCF7, 4.55; in the experiment with A549, 4.51.
Turning to `FC(F)(F)c1ccc(COc2cccc(Nc3ncnc4cc5c(cc34)OCCOCCO5)c2)cc1`, the pIC50 is below 4.00 with DU-145; 4.72 in the experiment on SH-SY5Y; below 4.00 in the experiment with HepG2; below 4.00 in the experiment with MCF7; below 4.00 in the experiment with A549.
In the case of `O=[N+]([O-])c1ccc(COc2cccc(Nc3ncnc4cc5c(cc34)OCCOCCOCCO5)c2)cc1`, the pIC50 in the experiment on DU-145, in the experiment on SH-SY5Y, in the experiment on HepG2, in the experiment with MCF7 and in the experiment on A549 was below 4.00 each time.
For `c1ccc(COc2ccccc2Nc2ncnc3cc4c(cc23)OCCOCCOCCOCCO4)cc1`, the pIC50 is below 4.00 in the experiment with DU-145; 4.62 in the experiment on SH-SY5Y; 4.53 with HepG2; below 4.00 with MCF7; 4.31 in the experiment on A549.
